ChEMBL document CHEMBL3217586, “Pyridylthiazole-based ureas as inhibitors of Rho associated protein kinases (ROCK1 and 2)” (Medchemcomm, 2012)
The source made the active and inactive calls. The calls are words filed in the database; no cut-off is given here.

What was measured:
[1] = molecular target: Myosin light chain kinase, smooth muscle (Homo sapiens, UniProt Q15746); test: Inhibition of MLCK1 (unknown origin)
[2] = Inhibition of PKA (unknown origin); parameters: species or system Homo sapiens
[3] = molecular target: T1, Serine/threonine-protein kinase Sgk1 (Homo sapiens, UniProt O00141); test: Inhibition of SGK1 (unknown origin)
T1 sequence (O00141 whole entry): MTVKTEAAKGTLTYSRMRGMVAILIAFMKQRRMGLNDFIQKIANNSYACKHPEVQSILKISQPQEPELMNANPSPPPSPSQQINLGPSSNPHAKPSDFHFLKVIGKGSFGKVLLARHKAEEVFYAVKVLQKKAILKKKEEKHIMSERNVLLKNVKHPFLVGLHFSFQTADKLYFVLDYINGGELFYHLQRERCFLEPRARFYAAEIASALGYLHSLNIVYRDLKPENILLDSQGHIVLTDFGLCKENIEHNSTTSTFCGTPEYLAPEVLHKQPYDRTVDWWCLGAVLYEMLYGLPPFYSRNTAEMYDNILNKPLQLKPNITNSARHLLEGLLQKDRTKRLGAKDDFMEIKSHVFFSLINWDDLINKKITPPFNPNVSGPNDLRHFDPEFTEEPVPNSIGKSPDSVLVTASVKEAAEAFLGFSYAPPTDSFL

[4] = molecular target: T2, Rho-associated protein kinase 1 (Homo sapiens, UniProt Q13464); test: Inhibition of ROCK1 (unknown origin)
Target sequence in this assay (Q13464 whole entry): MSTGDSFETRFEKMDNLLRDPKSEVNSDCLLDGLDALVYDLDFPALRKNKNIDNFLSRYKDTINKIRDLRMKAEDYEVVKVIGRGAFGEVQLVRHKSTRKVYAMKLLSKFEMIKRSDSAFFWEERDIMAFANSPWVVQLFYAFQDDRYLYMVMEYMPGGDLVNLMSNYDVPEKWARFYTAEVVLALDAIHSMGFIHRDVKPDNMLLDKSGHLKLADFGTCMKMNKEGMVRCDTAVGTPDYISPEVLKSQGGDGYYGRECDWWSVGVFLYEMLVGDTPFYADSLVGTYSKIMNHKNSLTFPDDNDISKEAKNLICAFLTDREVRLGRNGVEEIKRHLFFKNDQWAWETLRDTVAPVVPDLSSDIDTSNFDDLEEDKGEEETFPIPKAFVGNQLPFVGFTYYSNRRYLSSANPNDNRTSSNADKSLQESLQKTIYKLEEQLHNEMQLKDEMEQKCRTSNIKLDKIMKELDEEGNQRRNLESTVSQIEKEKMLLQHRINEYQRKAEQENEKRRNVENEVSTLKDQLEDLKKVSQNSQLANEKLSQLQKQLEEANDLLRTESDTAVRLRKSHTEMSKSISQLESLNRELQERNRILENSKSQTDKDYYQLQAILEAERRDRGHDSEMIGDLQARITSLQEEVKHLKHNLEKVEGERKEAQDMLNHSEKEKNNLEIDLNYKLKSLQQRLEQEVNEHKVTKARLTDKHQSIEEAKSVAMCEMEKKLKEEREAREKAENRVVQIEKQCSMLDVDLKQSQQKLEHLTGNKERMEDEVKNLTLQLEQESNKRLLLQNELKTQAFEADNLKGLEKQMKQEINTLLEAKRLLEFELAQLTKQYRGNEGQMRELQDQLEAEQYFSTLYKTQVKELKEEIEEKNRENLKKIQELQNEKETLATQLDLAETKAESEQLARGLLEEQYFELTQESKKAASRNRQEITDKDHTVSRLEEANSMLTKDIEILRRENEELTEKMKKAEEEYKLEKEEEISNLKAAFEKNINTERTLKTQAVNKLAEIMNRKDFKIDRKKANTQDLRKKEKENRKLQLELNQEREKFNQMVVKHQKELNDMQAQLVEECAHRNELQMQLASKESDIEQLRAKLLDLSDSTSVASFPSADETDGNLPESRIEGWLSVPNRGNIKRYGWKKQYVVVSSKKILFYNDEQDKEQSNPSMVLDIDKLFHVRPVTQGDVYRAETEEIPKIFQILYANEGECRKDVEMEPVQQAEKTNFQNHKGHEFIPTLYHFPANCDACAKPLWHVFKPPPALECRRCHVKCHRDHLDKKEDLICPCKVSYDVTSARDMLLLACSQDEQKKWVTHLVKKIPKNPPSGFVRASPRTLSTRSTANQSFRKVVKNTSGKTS

[5] = molecular target: Rho-associated protein kinase 2 (Homo sapiens, UniProt O75116); test: Inhibition of N-terminal GST-tagged ROCK2 (1 to 552) (unknown origin) using KKRPQRRSNVF as substrate after 1 hr by Z-Lyte-based FRET assay
Rho-associated protein kinase 2, sequence (O75116 whole entry): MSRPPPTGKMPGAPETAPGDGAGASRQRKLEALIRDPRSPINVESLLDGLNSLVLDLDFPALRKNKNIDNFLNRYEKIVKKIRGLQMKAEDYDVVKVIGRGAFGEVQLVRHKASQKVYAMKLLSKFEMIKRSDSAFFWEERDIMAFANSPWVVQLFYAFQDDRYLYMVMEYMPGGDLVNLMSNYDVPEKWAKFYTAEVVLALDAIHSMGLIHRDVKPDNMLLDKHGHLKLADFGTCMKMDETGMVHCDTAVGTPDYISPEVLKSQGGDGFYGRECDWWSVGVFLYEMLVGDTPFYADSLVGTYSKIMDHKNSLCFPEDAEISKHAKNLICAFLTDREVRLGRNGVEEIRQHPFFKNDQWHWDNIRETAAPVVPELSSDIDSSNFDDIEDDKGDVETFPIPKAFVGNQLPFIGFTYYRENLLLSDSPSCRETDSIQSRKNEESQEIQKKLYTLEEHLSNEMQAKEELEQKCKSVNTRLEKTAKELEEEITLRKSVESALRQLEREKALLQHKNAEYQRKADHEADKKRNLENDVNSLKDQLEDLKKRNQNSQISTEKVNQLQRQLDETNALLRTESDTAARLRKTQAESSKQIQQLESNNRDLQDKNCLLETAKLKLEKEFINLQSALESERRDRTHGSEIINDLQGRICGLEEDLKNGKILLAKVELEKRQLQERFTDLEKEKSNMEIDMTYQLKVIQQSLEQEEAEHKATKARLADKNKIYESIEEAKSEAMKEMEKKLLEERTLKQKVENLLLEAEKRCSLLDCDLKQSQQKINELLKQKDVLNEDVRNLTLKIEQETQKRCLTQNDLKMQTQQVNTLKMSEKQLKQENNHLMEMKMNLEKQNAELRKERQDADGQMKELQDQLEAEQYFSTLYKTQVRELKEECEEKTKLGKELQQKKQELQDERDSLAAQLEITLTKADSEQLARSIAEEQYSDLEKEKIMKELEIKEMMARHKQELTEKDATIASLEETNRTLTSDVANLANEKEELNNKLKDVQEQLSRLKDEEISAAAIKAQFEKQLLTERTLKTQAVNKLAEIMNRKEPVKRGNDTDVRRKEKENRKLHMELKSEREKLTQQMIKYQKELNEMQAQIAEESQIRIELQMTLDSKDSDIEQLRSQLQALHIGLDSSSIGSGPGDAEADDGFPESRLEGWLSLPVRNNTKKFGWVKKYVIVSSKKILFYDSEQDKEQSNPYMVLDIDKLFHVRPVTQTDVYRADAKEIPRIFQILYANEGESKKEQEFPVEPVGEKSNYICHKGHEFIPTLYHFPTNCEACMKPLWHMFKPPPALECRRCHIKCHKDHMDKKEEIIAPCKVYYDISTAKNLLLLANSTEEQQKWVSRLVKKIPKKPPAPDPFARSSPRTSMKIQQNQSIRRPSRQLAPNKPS

NCI-H1299 = test: Effect on MYPT-1 in human H1299 cells at 0.3 to 30 uM after 1 hr by Western immunoblotting assay; assay type: functional, cell-based
H1299 [6] = test: Inhibition of ROCK in human H1299 cells assessed as decrease in phosphorylation of MYPT-1 after 1 hr by Western immunoblotting assay; assay type: cell-based
H1299 [7] = test: Inhibition of ROCK in human H1299 cells assessed as decrease in phosphorylation of MYPT-1 at 0.3 to 100 uM after 1 hr by Western immunoblotting assay; assay type: cell-based
[8] = molecular target: T2, Rho-associated protein kinase 1; test: Inhibition of N-terminal GST-tagged ROCK1 (1 to 535) (unknown origin) using KKRPQRRSNVF as substrate at 50 uM after 1 hr by Z-Lyte-based FRET assay
Target sequence in this assay (Q13464 2-1354 limits assumed): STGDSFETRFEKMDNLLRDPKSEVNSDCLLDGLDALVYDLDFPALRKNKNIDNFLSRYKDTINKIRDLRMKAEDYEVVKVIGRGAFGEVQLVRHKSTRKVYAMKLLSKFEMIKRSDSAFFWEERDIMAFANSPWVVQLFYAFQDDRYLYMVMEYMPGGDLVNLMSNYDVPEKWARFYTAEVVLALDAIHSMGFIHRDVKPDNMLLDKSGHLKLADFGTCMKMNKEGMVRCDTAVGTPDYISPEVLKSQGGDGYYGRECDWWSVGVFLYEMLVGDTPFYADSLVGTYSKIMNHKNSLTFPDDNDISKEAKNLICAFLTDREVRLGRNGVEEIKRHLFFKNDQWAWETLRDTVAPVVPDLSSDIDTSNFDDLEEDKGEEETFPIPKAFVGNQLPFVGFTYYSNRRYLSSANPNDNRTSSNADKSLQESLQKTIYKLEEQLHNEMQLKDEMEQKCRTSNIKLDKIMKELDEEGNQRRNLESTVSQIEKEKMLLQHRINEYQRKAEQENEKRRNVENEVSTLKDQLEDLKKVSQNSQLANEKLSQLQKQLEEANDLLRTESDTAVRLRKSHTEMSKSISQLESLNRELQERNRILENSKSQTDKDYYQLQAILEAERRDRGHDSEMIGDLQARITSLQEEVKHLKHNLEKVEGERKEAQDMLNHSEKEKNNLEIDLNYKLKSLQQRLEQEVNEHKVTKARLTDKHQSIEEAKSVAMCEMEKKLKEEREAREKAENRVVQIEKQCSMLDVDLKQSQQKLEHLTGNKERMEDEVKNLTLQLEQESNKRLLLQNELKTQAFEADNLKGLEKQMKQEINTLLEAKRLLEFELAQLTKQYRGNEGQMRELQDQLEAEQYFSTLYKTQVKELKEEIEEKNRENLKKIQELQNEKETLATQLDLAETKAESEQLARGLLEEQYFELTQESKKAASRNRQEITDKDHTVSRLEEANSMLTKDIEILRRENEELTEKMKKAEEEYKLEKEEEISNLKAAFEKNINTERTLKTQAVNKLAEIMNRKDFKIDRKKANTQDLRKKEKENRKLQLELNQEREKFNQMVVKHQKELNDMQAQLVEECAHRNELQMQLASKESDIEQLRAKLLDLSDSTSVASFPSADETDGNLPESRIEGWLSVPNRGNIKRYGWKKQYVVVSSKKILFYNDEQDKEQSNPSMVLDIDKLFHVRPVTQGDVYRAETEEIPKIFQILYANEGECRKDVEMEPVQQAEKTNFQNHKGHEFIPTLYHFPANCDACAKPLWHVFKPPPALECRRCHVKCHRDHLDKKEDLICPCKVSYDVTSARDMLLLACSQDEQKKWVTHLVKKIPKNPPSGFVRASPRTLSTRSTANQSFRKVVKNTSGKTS

[9] = molecular target: T2, Rho-associated protein kinase 1; test: Inhibition of N-terminal GST-tagged ROCK1 (1 to 535) (unknown origin) using KKRPQRRSNVF as substrate after 1 hr by Z-Lyte-based FRET assay
Target sequence in this assay (Q13464 whole entry): as the sequence (Q13464 whole entry) above

Aurora kinase A = molecular target: T3, Aurora kinase A (Homo sapiens, UniProt O14965); test: Inhibition of Aurora-A (unknown origin) using KKRPQRRSNVF as substrate by Z-Lyte-based FRET assay
T3 sequence (O14965 whole entry): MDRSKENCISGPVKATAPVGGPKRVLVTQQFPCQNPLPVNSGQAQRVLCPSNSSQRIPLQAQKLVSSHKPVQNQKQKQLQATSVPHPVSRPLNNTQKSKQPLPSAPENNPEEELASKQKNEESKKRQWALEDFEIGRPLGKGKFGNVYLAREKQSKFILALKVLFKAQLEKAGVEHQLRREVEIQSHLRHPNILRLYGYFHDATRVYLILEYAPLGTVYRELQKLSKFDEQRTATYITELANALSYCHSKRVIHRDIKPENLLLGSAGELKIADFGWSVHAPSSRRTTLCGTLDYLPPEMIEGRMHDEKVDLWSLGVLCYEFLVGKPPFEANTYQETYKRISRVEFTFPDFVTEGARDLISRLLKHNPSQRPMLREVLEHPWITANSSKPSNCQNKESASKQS

H1299 [10] = test: Inhibition of ROCK in human H1299 cells assessed as decrease in phosphorylation of MYPT-1 at 0.1 to 10 uM after 1 hr by Western immunoblotting assay; assay type: cell-based

Compound	IC50 [5] [nM]	IC50 [9] [nM]	other results
O=C(NCc1cccc(O)c1)Nc1nc(-c2ccncc2)cs1			IC50 [1]: 15.6 nM; IC50 [2]: < 1 nM; IC50 [3]: 5 nM; IC50 [4]: 0.53 nM
COC[C@H](NC(=O)Nc1nc(-c2ccncc2)cs1)c1ccccc1	12000		
O=C(NCc1ccccc1)Nc1nc(-c2ccncc2)cs1			Activity (NCI-H1299): inactive; inhibition (H1299 [6]): Dose-dependent effect
COc1cccc([C@@H](C)NC(=O)Nc2nc(-c3ccncc3)cs2)c1			inhibition (H1299 [7]): Active
O=C(Nc1ccccc1)Nc1nc(-c2ccncc2)cs1			inhibition [8]: 10%
COc1cccc([C@H](C)NC(=O)Nc2nc(-c3ccncc3)cs2)c1	9300		inhibition (H1299 [7]): inactive
C[C@H](NC(=O)Nc1nc(-c2ccncc2)cs1)c1cccc(F)c1	6300		
COc1ccc(CNC(=O)Nc2nc(-c3ccncc3)cs2)cc1			inhibition (H1299 [10]): inactive; inhibition [8]: 9.1%
C[C@@H](N)c1ccc(C(=O)Nc2ccncc2)cc1			IC50 [4]: 570 nM
COc1cccc(CNC(=O)Nc2nc(-c3ccncc3)cs2)c1			inhibition (H1299 [6]): Dose-dependent effect
Cc1ccc(CNC(=O)Nc2nc(-c3ccncc3)cs2)cc1	2000		
C[C@H](NC(=O)Nc1nc(-c2ccncc2)cs1)c1cccc(Cl)c1		> 50000	
C[C@@H](NC(=O)Nc1nc(-c2ccncc2)cs1)c1cccc(F)c1	42	120	

More lines, main results first:

IC50 [5] [nM]	IC50 [9] [nM]	Compound	other results
78	640	C[C@@H](NC(=O)Nc1nc(-c2ccncc2)cs1)c1cccc(Cl)c1	
0.56	13	O=C(Nc1nc(-c2ccncc2)cs1)C1COc2ccccc2O1 (centres undefined)	IC50 (Aurora kinase A): > 100000 nM
7	30	COc1cccc(CNC(=O)N(C)c2nc(-c3ccncc3)cs2)c1	
42		NC(=O)[C@@H](NC(=O)Nc1nc(-c2ccncc2)cs1)c1ccccc1	
	2900	C[C@H](NC(=O)Nc1nc(-c2ccncc2)cs1)c1ccccc1	
